Measurements as given in patent US5859025A, “Fluoroalkyl- and fluoroalkoxy-substituted heterocyclic bradykinin antagonists, process for their preparation, and their use” (Hoechst Aktiengesellschaft, priority 1996, dated 1999).
One block for each molecule: values may come before it.

Columns and labels:
[1] = test system: bradykinin contraction of the isolated rabbit jugular vein; assay: in-vitro duration of action on the isolated rabbit jugular (bradykinin-induced contraction); type: cell-based, rabbit (white New Zealand); conditions: for inhibition at 10 µM: Oryctolagus cuniculus, 0.25 h, time 15 min, test substance (10^-5 M) present in bath, bradykinin 10^-7 M; for inhibition at 10 µM / Inhibition of the bradykinin contraction in %: mean, n=6; for inhibition after 4 h (in words): test substance 10^-5 M; for Inhibition of the bradykinin contraction in %: after rinsing (test substance 10^-5 M no longer in bath)
Method: The compounds of Examples 1, X and Y were compared. Examples X and Y are described in EP-A 622 361.
Comparison of the in-vitro duration of action of heterocyclic bradykinin antagonists on the isolated rabbit jugular
Male rabbits (white New Zealand, breeder: Mollegaard, Denmark, 2.5-3.0 kg) are killed by injection of an overdose of Pentobarbital-Na (1 ml of Narcoren®+0.5 ml of heparin). The two jugular veins are exposed, cut spirally and pieces of about 1.5 cm length are suspended in buffered organ baths (Krebs-Henseleit buffer) at a pretension of 0.5 g.
After a rest period of 30 min, contractions are induced by addition of bradykinin (10^-7 M), which serve as the starting value. Test substances are then added at a concentration of 10^-5 M. The inhibitory values shown are mean values (n=6). […] The bradykinin contraction is then ended by rinsing with just buffer solution.
At each further time shown, stimulation was again carried out with bradykinin (in the absence of the test substance in the bath fluid) and at the end of the contraction the bath fluid was replaced by just buffer solution.

bradykinin B2 receptor = molecular target: T1, bradykinin B2 receptor (Cavia porcellus, UniProt O70526); assay: binding to the bradykinin B2 receptor of the guinea-pig ileum (3H-bradykinin competition); conditions: 3H-bradykinin 0.25 to 0.3 nmol/l, guinea-pig ileum membranes; for Ki: LIGAND program; for IC50: room temperature, 60 minutes
T1 construct: The guinea-pig ilea are roughly freed of the intestinal contents by careful stripping; from tissue; host or cells: guinea-pig ileum, membrane preparation
T1 sequence (O70526 1-372): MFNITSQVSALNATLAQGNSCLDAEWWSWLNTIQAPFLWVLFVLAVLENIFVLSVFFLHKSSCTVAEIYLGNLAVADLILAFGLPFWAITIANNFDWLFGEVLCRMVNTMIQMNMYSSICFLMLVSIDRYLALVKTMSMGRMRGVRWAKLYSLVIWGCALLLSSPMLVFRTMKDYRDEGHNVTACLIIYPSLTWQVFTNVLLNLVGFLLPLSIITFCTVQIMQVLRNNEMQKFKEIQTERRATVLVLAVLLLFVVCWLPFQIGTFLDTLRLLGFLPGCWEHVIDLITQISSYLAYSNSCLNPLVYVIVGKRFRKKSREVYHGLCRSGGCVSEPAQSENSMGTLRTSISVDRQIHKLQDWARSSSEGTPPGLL
Method: The measurement of the binding to the bradykinin B2 receptor of the guinea-pig ileum is described in the following (R. B. Innis et al., Proc. Natl. Acad. Sci. USA; 17 (1981) 2630): […]
25 mM TES (SIGMA, Order No: T-4152)
1 mM 1,10-phenanthroline (SIGMA; Order No: P-9375)
25 mM TES (SIGMA; Order No.: T-4152)
1 mM 1,10-phenanthroline (SIGMA; Order No.: P-9375)
0,1% albumin, bovine (SIGMA; Order No.: A-7906)
140 mg/ml bacitracin (SIGMA; Order No.: B-0125)
1 mM dithiothreitol (SIGMA; Order No.: D-0632)
1 mM captopril® 1-[(2S)-3-mercapto-2-methylpropionyl]-L-proline
Both buffers are adjusted to pH 6.8 using 5 molar NaOH.
The guinea-pig ilea are roughly freed of the intestinal contents by careful stripping and cleaned in 0.9% strength NaCl solution. The pieces of ilea, which are about 2 cm long, are transferred to ice-cold TES buffer (about 1 g/10 ml) and homogenized in an ice-bath for 30 sec. using an Ultraturrax. The homogenate is then filtered through 3 layers of gauze and the filtrate is centrifuged at 50,000 g for 10 minutes. The supernatant is discarded, and the pellet is rehomogenized in the same volume of TES buffer and centrifuged again at 50,000 g for 10 minutes. The pellet is rehomogenized in incubation buffer (about 1 g/5 ml) and frozen at -70° C. in cryotubes, divided into 2 ml portions.
The protein concentration of the ready-to-use membrane suspension is determined according to LOWRY and should be about 15 mg/100 ml.
All incubations are carried out at room temperature for 60 minutes on microtiter plates (96×300 ml) in 200 ml volumes. All mixtures in incubation buffer. To this end, 50 ml of the radioligand, 50 ml of the preparation to be tested and 100 ml of the membrane suspension are pipetted successively into the depressions of the microtiter plate. […]
a) Saturation Experiments (hot saturation)
Preparation of the ^3 H-bradykinin solution: For the saturation experiments, the concentrations 0.05, 0.1, 0.2, 0.4, 0.6, 0.8, 1.0, 1.5, 2.0, 2.5 and 3.0 nmol/l are employed, which correspond to 0.05 to 3.0 pmol/ml. After the preparation of the corresponding dilutions, 50 ml each per sample are initially introduced.
Nonspecific binding: For each concentration of the radioactive ligand, the nonspecific binding must be determined. This can be achieved by addition of a high concentration (1-100 mmol) of the unlabeled ligand, other antagonists or agonists of the bradykinin receptor. […] For this, 1.862 mg are dissolved in 1 ml of dimethyl sulfoxide (DMSO), diluted 1:25 with incubation buffer and 50 ml of this solution are added to the samples in the microtiter plates. The reaction is started by the addition of […] of the membrane suspension. […]
b) Competition Experiments (IC50)
Here a fixed quantity of the radioactive ligand (0.25 to 0.3 nmol/l of ^3 H-bradykinin) and various concentrations of the unlabeled agonists or antagonists are employed. 50 ml of the preparations or standards to be tested in the concentrations 10^-5 to 10^-10 mol/l are added to in each case 50 ml of the ^3 H-bradykinin solution and the reaction is started by addition of […] of membrane suspension. In this test too, triplicate determinations are carried out and three samples are incubated with […] of HOE 140 to determine the nonspecific binding.
The preparations to be tested for competition are always dissolved at a concentration of 1 mmol/l in dimethyl sulfoxide (DMSO), and then further diluted with DMSO. This solution is then diluted 1:25 with incubation buffer.
After incubation, the samples are filtered off in a Skatron cell harvester through a Whatmann GF/B filter previously moistened with 0.1% PEI (polyethylenimine) and washed with 10 ml of ice-cold TES buffer per sample. The still moist filters are punched out into mini-scintillation tubes and the tubes are filled with 3 ml of scintillator. After about 12 hours soaking time, the samples are briefly shaken and measured in a beta counter. […]

[2] = test system: bradykinin-induced contraction of the guinea-pig ileum; assay: antagonist action on the bradykinin-induced contraction of the guinea-pig ileum; type: cell-based; conditions: Cavia porcellus, 10 min; isolated guinea-pig ileum, bradykinin 4×10^-8 mol/l, time of action 10 min, 37° C.
Method: The determinations of the antagonist action on the bradykinin-induced contraction of the guinea-pig ileum were carried out according to the following protocol:
Guinea-pigs weighing about 300 g (Morioth strain,--) are killed by a blow to the neck and exsanguinated. The ileum is dissected out in a length of about 20 cm, rinsed with Tyrode solution (Record syringe) and thus freed of intestinal contents. It is then divided into sections 1.5 cm long. These are fixed in organ baths of capacity 10 ml, which are filled with Tyrode solution, and connected to extension-measuring strips (isometric contraction measurement). The preload is 1 g. The Tyrode solution is warmed to 37° C. in a water bath and bubbled through with compressed air. After an interval of 30 min. the experiment is begun. After recording the biological zero line, bradykinin at a final concentration of 4×10^-8 mol/l per organ bath is added and the […] is recorded. The organ bath is then rinsed for 3 min with Tyrode solution and, after a break of 20 min., bradykinin is added again. The maximum of the contraction is achieved (control). Rinse again, break. The bradykinin antagonist is then added (time of action 10 min). Bradykinin is then added again and the ensuing contraction is compared with that of the control. The experiment is recorded on a pen recorder. […]
______________________________________ […]

SMILES: COc1cccc(/C=C/C(=O)NCC(=O)N(C)c2ccc(Cl)c(COc3cccc4ccc(C)nc34)c2Cl)c1 [Example Y]
inhibition at 10 µM [1]: 96%
inhibition after 4 h (in words) [1]: no longer show any inhibition
Inhibition of the bradykinin contraction in % ([1]; time 30 min, bradykinin): 97%
Inhibition of the bradykinin contraction in % ([1]; time 180 min): 84%
Inhibition of the bradykinin contraction in % ([1]; time 210 min): 59%
Inhibition of the bradykinin contraction in % ([1]; time 240 min): 31%
Inhibition of the bradykinin contraction in % ([1]; time 270 min): 3%

SMILES: Cc1ccc(/C=C/C(=O)NCC(=O)N(C)c2ccc(Cl)c(COc3cccc4ccc(C)nc34)c2Cl)cc1 [Example X]
inhibition at 10 µM [1]: 97%
inhibition after 4 h (in words) [1]: no longer show any inhibition
Inhibition of the bradykinin contraction in % ([1]; time 120 min): 95%
Inhibition of the bradykinin contraction in % ([1]; time 150 min): 87%
Inhibition of the bradykinin contraction in % ([1]; time 180 min): 74%
Inhibition of the bradykinin contraction in % ([1]; time 210 min): 58%
Inhibition of the bradykinin contraction in % ([1]; time 240 min): 30%

SMILES: Cc1ccc2cccc(OCc3c(Cl)ccc(N(C)C(=O)CNC(=O)OCc4ccc(OC(F)(F)F)cc4)c3Cl)c2n1 [Example 22]
Ki (bradykinin B2 receptor): 10 nM
IC50 (bradykinin B2 receptor): 95 nM

More lines, main results first:

Ki (bradykinin B2 receptor): 1 nM
IC50 (bradykinin B2 receptor): 9 nM
IC50 [2]: 44 nM
SMILES: Cc1ccc2cccc(OCc3c(Cl)ccc(N(C)C(=O)CNC(=O)/C=C/c4ccc(C(F)(F)F)cc4)c3Cl)c2n1 [Example 1, 8-[3-(N-(4-trans-Trifluoromethylcinnamoylglycyl)-N-methylamino)-2,6-dichlorobenzyloxy]-2-methylquinoline]
inhibition at 10 µM [1]: 98%
in-vitro duration of action (in words) ([1]; isolated rabbit jugular, compared with Examples Y and X): distinctly longer in-vitro duration of action
Inhibition of the bradykinin contraction in % ([1]; time 30 min, bradykinin): 99%
Inhibition of the bradykinin contraction in % ([1]; time 60 min): 99%
Inhibition of the bradykinin contraction in % ([1]; time 210 min): 95%
Inhibition of the bradykinin contraction in % ([1]; time 240 min): 92%
Inhibition of the bradykinin contraction in % ([1]; time 270 min): 87%
Inhibition of the bradykinin contraction in % ([1]; time 300 min): 78%
Inhibition of the bradykinin contraction in % ([1]; time 330 min): 71%
Inhibition of the bradykinin contraction in % ([1]; time 360 min (6 h)): 68%

Ki (bradykinin B2 receptor): 4 nM
IC50 (bradykinin B2 receptor): 40 nM
IC50 [2]: 1500 nM
SMILES: Cc1ccc2c(C)ccc(OCc3c(Cl)ccc(N(C)C(=O)CNC(=O)/C=C/c4ccc(C(F)(F)F)cc4)c3Cl)c2n1 [Example 2]

Ki (bradykinin B2 receptor): 5.1 nM
IC50 (bradykinin B2 receptor): 38 nM
SMILES: Cc1ccc2cccc(OCc3c(Cl)ccc(N(C)C(=O)CNC(=S)Nc4cccc(C(F)(F)F)c4)c3Cl)c2n1 [Example 29, 8-[3-N-(3-Trifluoromethylphenylthioureidoacetyl-N-methylamino)-2,6-dichlorobenzyloxy]-2-methylquinoline]

Ki (bradykinin B2 receptor): 3.4 nM
IC50 (bradykinin B2 receptor): 28 nM
SMILES: Cc1ccc2cccc(OCc3c(Cl)ccc(N(C)C(=O)CNC(=O)Cc4ccc(C(F)(F)F)cc4)c3Cl)c2n1 [Example 8]
